{
  "source": "ChEMBL document CHEMBL1142066",
  "about": "“In vitro effects of antimicrobial agents on planktonic and biofilm forms of Staphylococcus lugdunensis clinical isolates” (2007)",
  "type_in_all_cases": "functional",
  "key": {"[1]": {"system": "Staphylococcus lugdunensis", "assay": "Effect on biofilm formation of Staphylococcus lugdunensis assessed as percent non-biofilm forming isolates", "parameters": "concentration or dose not given beside the values"}, "[2]": {"system": "Staphylococcus lugdunensis", "assay": "Antimicrobial susceptibility of Staphylococcus lugdunensis isolates by broth microdilution method"}, "[3]": {"system": "Staphylococcus lugdunensis", "assay": "Antimicrobial susceptibility of Staphylococcus lugdunensis IDRL2394 isolate from prosthetic joint infection patient by broth microdilution method"}, "[4]": {"system": "Staphylococcus lugdunensis", "assay": "Antimicrobial susceptibility of Staphylococcus lugdunensis IDRL5254 isolate from intravascular catheter infection patient by broth microdilution method"}, "[5]": {"system": "Staphylococcus lugdunensis", "assay": "Antimicrobial susceptibility of Staphylococcus lugdunensis IDRL5256 isolate from prosthetic joint infection patient by broth microdilution method"}, "[6]": {"system": "Staphylococcus lugdunensis", "assay": "Ratio of MBC to MIC for Staphylococcus lugdunensis IDRL5256 isolate from prosthetic joint infection patient by broth microdilution method"}, "[7]": {"system": "Staphylococcus lugdunensis", "assay": "Antimicrobial susceptibility of Staphylococcus lugdunensis IDRL856 biofilms after 24 hrs assessed as bacterial regrowth"}, "[8]": {"system": "Staphylococcus lugdunensis", "assay": "Antimicrobial susceptibility of Staphylococcus lugdunensis IDRL2394 biofilms after 24 hrs assessed as bacterial regrowth"}, "[9]": {"system": "Staphylococcus lugdunensis", "assay": "Antimicrobial susceptibility of Staphylococcus lugdunensis IDRL2414 biofilms after 24 hrs assessed as bacterial regrowth"}, "[10]": {"system": "Staphylococcus lugdunensis", "assay": "Antimicrobial susceptibility of Staphylococcus lugdunensis IDRL2492 biofilms after 24 hrs assessed as bacterial regrowth"}, "[11]": {"system": "Staphylococcus lugdunensis", "assay": "Antimicrobial susceptibility of Staphylococcus lugdunensis IDRL2526 biofilms after 24 hrs assessed as bacterial regrowth"}, "[12]": {"system": "Staphylococcus lugdunensis", "assay": "Antimicrobial susceptibility of Staphylococcus lugdunensis IDRL2554 biofilms after 24 hrs assessed as bacterial regrowth"}, "[13]": {"system": "Staphylococcus lugdunensis", "assay": "Antimicrobial susceptibility of Staphylococcus lugdunensis IDRL2588 biofilms after 24 hrs assessed as bacterial regrowth"}, "[14]": {"system": "Staphylococcus lugdunensis", "assay": "Antimicrobial susceptibility of Staphylococcus lugdunensis IDRL2622 biofilms after 24 hrs assessed as bacterial regrowth"}, "[15]": {"system": "Staphylococcus lugdunensis", "assay": "Antimicrobial susceptibility of Staphylococcus lugdunensis IDRL2639 biofilms after 24 hrs assessed as bacterial regrowth"}, "[16]": {"system": "Staphylococcus lugdunensis", "assay": "Antimicrobial susceptibility of Staphylococcus lugdunensis IDRL2640 biofilms after 24 hrs assessed as bacterial regrowth"}, "[17]": {"system": "Staphylococcus lugdunensis", "assay": "Antimicrobial susceptibility of Staphylococcus lugdunensis IDRL2664 biofilms after 24 hrs assessed as bacterial regrowth"}, "[18]": {"system": "Staphylococcus lugdunensis", "assay": "Antimicrobial susceptibility of Staphylococcus lugdunensis IDRL5204 biofilms after 24 hrs assessed as bacterial regrowth"}, "[19]": {"system": "Staphylococcus lugdunensis", "assay": "Antimicrobial susceptibility of Staphylococcus lugdunensis IDRL5254 biofilms after 24 hrs assessed as bacterial regrowth"}, "[20]": {"system": "Staphylococcus lugdunensis", "assay": "Antimicrobial susceptibility of Staphylococcus lugdunensis IDRL5256 biofilms after 24 hrs assessed as bacterial regrowth"}, "[21]": {"system": "Staphylococcus lugdunensis", "assay": "Antimicrobial susceptibility of Staphylococcus lugdunensis IDRL5258 biofilms after 24 hrs assessed as bacterial regrowth"}, "[22]": {"system": "Staphylococcus lugdunensis", "assay": "Increase in biofilm formation of Staphylococcus lugdunensis assessed as percent biofilm forming isolates"}, "[23]": {"system": "Staphylococcus lugdunensis", "assay": "Decrease in biofilm formation of Staphylococcus lugdunensis assessed as percent biofilm forming isolates", "parameters": "concentration or dose not given beside the values"}},
  "data": [
    {"smiles": "CN[C@H](CC(C)C)C(=O)N[C@H]1C(=O)N[C@@H](CC(N)=O)C(=O)N[C@H]2C(=O)N[C@H]3C(=O)N[C@H](C(=O)N[C@H](C(=O)O)c4cc(O)cc(O)c4-c4cc3ccc4O)[C@H](O)c3ccc(c(Cl)c3)Oc3cc2cc(c3O[C@@H]2O[C@H](CO)[C@@H](O)[C@H](O)[C@H]2O[C@H]2C[C@](C)(N)[C@H](O)[C@H](C)O2)Oc2ccc(cc2Cl)[C@H]1O", "note": "[VANCOMYCIN]", "values": [
      {"measurement": "Activity", "setting": "[1]", "result": 47, "unit": "%"},
      {"measurement": "MBC50", "setting": "[2]", "result": ">128", "unit": "µg/mL"},
      {"measurement": "MBC90", "setting": "[2]", "result": ">128", "unit": "µg/mL"},
      {"measurement": "MIC50", "setting": "[2]; Staphylococcus lugdunensis", "result": 1, "unit": "µg/mL"},
      {"measurement": "MIC90", "setting": "[2]; Staphylococcus lugdunensis", "result": 2, "unit": "µg/mL"},
      {"measurement": "MBC", "setting": "[3]", "result": 64, "unit": "µg/mL"},
      {"measurement": "MBC", "setting": "[4]", "result": 64, "unit": "µg/mL"},
      {"measurement": "MBC", "setting": "[5]", "result": 4, "unit": "µg/mL"},
      {"measurement": "Ratio", "setting": "[6]", "result": ">=64"},
      {"measurement": "BBC", "setting": "[7]", "result": ">128", "unit": "µg/mL"},
      {"measurement": "BBC", "setting": "[8]", "result": ">128", "unit": "µg/mL"},
      {"measurement": "BBC", "setting": "[9]", "result": ">128", "unit": "µg/mL"},
      {"measurement": "BBC", "setting": "[10]", "result": ">128", "unit": "µg/mL"},
      {"measurement": "BBC", "setting": "[11]", "result": ">128", "unit": "µg/mL"},
      {"measurement": "BBC", "setting": "[12]", "result": 4, "unit": "µg/mL"},
      {"measurement": "BBC", "setting": "[13]", "result": ">128", "unit": "µg/mL"},
      {"measurement": "BBC", "setting": "[14]", "result": ">128", "unit": "µg/mL"},
      {"measurement": "BBC", "setting": "[15]", "result": ">128", "unit": "µg/mL"},
      {"measurement": "BBC", "setting": "[16]", "result": ">128", "unit": "µg/mL"},
      {"measurement": "BBC", "setting": "[17]", "result": 8, "unit": "µg/mL"},
      {"measurement": "BBC", "setting": "[18]", "result": 4, "unit": "µg/mL"},
      {"measurement": "BBC", "setting": "[19]", "result": ">128", "unit": "µg/mL"},
      {"measurement": "BBC", "setting": "[20]", "result": ">128", "unit": "µg/mL"},
      {"measurement": "BBC", "setting": "[21]", "result": ">128", "unit": "µg/mL"},
      {"measurement": "Activity", "setting": "[22]", "result": 27, "unit": "%"},
      {"measurement": "Activity", "setting": "[23]", "result": 27, "unit": "%"}
    ]}
  ]
}
